pIC50: −log10 of the molar value.
Target: CACNA1H (Homo sapiens, UniProt O95180)
Test: whole-cell voltage clamp, HEK-293
Assay type: cell-based

Sequence of CACNA1H (O95180 whole entry): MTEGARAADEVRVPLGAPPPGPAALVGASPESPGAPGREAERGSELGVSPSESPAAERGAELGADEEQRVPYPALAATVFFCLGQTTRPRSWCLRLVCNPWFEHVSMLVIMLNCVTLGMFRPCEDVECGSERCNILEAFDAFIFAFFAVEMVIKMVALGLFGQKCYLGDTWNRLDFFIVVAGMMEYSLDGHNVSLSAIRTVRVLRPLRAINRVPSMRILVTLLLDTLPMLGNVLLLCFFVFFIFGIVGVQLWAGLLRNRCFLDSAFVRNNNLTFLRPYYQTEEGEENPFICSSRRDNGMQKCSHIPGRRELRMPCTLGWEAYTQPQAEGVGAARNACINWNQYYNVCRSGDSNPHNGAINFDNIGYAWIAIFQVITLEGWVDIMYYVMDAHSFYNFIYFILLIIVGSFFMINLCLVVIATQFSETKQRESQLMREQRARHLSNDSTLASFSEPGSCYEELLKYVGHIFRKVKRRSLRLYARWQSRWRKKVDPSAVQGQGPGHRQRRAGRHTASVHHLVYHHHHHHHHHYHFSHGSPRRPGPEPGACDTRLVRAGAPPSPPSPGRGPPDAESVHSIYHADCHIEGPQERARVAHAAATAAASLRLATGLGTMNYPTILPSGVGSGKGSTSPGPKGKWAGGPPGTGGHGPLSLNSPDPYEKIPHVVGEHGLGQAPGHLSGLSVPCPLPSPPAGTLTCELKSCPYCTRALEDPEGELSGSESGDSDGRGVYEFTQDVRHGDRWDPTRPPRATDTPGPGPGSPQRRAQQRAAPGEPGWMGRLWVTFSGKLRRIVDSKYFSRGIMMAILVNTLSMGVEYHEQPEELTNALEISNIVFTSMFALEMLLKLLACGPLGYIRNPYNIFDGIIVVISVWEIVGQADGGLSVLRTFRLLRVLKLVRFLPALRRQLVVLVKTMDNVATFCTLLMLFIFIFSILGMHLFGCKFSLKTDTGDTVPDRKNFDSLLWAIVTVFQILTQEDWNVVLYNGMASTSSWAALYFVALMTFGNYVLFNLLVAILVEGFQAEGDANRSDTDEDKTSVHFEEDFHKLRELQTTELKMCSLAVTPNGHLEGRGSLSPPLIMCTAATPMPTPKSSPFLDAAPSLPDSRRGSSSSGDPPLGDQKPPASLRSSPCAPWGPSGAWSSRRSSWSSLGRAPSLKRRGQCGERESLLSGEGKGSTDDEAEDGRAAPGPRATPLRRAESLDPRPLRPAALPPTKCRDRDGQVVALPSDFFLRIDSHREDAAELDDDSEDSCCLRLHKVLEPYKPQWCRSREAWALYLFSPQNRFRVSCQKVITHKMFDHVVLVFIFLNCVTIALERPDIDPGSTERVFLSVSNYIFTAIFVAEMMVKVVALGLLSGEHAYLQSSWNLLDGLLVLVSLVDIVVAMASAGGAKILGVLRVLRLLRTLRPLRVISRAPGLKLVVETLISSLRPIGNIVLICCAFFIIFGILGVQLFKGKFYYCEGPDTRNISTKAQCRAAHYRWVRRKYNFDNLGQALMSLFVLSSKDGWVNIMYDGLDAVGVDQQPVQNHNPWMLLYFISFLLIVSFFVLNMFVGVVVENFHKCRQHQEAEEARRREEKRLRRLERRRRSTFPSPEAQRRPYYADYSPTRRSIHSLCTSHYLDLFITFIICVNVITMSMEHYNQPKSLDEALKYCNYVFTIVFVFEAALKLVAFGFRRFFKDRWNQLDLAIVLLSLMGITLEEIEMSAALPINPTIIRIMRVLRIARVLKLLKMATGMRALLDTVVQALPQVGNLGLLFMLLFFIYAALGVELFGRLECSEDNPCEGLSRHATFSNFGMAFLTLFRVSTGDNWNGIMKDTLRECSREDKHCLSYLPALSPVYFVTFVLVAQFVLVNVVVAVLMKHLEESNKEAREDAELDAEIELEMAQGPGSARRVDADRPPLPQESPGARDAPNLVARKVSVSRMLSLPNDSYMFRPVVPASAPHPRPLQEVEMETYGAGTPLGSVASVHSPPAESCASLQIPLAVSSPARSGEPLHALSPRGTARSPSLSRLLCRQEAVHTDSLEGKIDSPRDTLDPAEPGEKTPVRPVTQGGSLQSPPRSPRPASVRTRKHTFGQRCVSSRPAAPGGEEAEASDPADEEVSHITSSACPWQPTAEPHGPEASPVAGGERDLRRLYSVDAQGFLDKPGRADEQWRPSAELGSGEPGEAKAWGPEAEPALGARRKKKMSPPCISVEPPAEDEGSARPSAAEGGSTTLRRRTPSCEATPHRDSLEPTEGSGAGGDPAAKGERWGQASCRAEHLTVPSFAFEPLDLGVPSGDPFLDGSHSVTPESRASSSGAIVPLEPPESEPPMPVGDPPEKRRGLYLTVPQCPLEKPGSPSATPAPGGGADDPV

pIC50: 8.52
SMILES: Fc1ccc(CN(CC(F)(F)F)C2CCN(CCCc3c[nH]c4ccc(Cn5cncn5)cc34)CC2)cc1 [TTA-I1, N-(4-fluorobenzyl)-1-{3-[5-(1H-1,2,4-triazol-1-ylmethyl)-1H-indol-3-yl]propyl}-N-(2,2,2-trifluoroethyl)piperidin-4-amine]

— PMC2902375 (Neuroreport, 2009)
